Results on 15 compounds are retold here after patent US12448389B2, “BRM targeting compounds and associated methods of use” (Prelude Therapeutics Incorporated, priority 2020, dated 2025).

One test deals with T1, SMARCA2-HiBiT (Homo sapiens, UniProt P51531).
T1 construct: SMARCA2-HiBiT knock-in Hela monoclonal cell (CS302366); host or cells: HeLa monoclonal knock-in line (CRISPR HiBiT knock-in at the endogenous locus, heterozygous)
Description: SMARCA2 HiBiT degradation assay in HeLa cells. In kind it is cell-based. Conditions: 18 hours incubation; for DC50: read-out: HeLa_HiBit-SM2 DC50; for Dmax: HeLa, read-out: HeLa-HiBit-SM2 Dmax (%). The gist of the method: (§1)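 HeLa monoclonal lines with heterozygous HiBiT knock-in were seeded at 2500 cells/well in EMEM with 10% FBS and treated with compound for 18 h at 37 °C. Remaining tagged protein was measured by Nano-Glo HiBiT lytic luminescence after 30–60 min at RT, and values came from curve fitting.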
(In general: The HiBiT peptide binds its large partner to form an active luciferase.)

For a further test, the target named is T2, SMARCA4-HiBiT (Homo sapiens, UniProt P51532).
T2 construct: SMARCA4-HiBiT knock-in Hela monoclonal cell (CS3023226); host or cells: HeLa monoclonal knock-in line (CRISPR HiBiT knock-in at the endogenous locus, heterozygous)
The experiment in a line: SMARCA4 HiBiT degradation assay in HeLa cells. In kind it is cell-based. Conditions: 18 hours incubation; for DC50: read-out: HeLa-HiBit-SM4 DC50; for Dmax: HeLa, read-out: HeLa-HiBit-SM4 Dmax (%). The gist of the method: as §1

A value given as a limit tells only on which side of the number the result lay.

T1 sequence (P51531 whole entry): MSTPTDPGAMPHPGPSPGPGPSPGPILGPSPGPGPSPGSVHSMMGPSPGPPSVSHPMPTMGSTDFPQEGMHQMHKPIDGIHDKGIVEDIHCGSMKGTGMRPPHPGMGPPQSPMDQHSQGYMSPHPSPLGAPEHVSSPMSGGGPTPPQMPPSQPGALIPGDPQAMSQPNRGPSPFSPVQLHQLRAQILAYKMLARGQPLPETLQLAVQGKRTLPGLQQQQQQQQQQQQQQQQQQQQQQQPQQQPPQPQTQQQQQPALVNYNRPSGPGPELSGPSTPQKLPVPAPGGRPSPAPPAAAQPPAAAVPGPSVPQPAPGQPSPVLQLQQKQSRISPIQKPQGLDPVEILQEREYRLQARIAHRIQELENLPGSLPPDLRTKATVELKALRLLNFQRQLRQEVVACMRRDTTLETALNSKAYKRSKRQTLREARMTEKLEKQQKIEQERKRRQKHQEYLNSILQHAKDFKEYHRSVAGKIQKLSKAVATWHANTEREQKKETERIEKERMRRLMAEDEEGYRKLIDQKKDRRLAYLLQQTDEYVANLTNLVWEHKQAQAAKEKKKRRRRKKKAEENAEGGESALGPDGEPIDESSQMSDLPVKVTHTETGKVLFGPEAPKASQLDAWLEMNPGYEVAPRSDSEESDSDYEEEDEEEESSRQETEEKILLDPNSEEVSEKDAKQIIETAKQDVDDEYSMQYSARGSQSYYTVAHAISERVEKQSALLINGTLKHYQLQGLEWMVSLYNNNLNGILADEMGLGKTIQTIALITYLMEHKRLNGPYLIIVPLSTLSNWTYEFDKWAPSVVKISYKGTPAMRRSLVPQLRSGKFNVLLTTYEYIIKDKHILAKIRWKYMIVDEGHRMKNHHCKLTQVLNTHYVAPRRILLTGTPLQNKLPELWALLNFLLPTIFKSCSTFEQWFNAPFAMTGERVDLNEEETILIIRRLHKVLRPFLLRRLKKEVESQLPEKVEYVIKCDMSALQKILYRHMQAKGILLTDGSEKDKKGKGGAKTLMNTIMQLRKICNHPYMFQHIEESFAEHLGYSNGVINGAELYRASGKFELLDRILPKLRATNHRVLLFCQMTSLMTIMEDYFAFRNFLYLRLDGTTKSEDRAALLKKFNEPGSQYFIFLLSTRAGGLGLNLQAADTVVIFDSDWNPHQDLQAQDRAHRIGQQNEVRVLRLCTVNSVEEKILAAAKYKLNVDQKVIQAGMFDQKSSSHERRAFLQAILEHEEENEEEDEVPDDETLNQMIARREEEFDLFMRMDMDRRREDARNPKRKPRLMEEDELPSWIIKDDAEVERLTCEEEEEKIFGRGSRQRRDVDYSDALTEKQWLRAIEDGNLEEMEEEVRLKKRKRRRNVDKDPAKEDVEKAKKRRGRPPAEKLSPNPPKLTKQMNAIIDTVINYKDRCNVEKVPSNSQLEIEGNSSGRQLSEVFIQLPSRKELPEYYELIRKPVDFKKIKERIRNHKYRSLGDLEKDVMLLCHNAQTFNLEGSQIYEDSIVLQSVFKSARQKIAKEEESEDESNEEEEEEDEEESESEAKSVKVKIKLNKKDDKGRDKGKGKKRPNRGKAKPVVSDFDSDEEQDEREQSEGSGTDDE
T2 sequence (P51532 whole entry): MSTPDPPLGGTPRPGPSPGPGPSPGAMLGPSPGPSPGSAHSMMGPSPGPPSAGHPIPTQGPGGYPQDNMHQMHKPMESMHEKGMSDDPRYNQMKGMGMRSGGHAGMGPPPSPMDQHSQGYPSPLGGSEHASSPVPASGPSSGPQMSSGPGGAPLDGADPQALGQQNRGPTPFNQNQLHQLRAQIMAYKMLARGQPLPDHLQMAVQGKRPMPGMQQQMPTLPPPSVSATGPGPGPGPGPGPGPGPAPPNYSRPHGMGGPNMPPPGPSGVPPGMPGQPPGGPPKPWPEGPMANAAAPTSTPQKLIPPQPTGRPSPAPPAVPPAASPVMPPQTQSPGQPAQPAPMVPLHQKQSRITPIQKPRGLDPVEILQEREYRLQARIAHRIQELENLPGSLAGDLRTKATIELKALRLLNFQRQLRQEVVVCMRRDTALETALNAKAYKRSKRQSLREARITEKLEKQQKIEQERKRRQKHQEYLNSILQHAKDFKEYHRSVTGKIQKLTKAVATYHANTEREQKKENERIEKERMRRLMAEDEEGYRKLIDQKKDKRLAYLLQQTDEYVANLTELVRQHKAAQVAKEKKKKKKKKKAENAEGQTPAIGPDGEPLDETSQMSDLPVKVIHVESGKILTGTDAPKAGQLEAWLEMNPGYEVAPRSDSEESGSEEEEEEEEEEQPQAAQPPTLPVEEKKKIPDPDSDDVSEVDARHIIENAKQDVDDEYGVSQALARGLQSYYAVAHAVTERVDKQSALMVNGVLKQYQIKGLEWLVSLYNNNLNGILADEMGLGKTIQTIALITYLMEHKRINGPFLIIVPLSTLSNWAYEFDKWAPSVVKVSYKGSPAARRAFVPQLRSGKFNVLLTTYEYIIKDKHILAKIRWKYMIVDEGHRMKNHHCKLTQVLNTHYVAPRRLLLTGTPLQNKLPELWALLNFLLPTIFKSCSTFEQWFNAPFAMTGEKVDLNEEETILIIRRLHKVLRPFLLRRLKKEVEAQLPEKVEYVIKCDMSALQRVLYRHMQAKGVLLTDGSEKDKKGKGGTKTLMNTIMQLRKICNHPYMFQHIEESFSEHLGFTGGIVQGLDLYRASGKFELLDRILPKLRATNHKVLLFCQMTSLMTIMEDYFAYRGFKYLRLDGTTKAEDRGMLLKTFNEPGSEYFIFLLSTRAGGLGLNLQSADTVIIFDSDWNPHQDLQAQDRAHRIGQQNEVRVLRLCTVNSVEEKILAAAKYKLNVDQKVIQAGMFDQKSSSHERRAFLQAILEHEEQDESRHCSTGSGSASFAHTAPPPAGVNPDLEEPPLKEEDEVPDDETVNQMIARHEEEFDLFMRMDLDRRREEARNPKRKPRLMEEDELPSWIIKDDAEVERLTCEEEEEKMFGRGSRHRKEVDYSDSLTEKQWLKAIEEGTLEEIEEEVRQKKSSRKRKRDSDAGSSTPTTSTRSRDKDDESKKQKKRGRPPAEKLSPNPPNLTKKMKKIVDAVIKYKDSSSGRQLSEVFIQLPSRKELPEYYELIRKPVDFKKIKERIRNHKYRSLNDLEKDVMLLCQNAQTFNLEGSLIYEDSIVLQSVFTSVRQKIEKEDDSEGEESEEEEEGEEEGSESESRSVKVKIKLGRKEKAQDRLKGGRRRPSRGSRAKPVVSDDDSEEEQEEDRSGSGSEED

Regarding `O=C1CCC(N2C(=O)c3ccc(Oc4ccc(N5CCC(N6CCN7c8cc(-c9ccccc9O)nnc8NC[C@H]7C6)CC5)cc4)cc3C2=O)C(=O)N1` (stereo partly drawn) [Example 241, 2-(2,6-dioxopiperidin-3-yl)-5-(4-(4-((S)-2-(2-hydroxyphenyl)-5,6,6a,7,9,10-hexahydro-8H-pyrazino[1′,2′:4,5]pyrazino[2,3-c]pyridazin-8-yl)piperidin-1-yl)phenoxy)isoindoline-1,3-dione], at SMARCA2-HiBiT, the DC50 (as a rule, the midpoint of the concentration-degradation curve) is less than 10 nM and the Dmax (as a rule, the greatest extent of degradation seen) lay in the range of 50 to 75%. On SMARCA4-HiBiT, the DC50 was 10 to 100 nM and the maximal degradation (Dmax) lay in the range of 75 to 85%.
In the same order, the values of `O=C1CCC(N2C(=O)c3ccc(NCCN4CCC(N5CCN6c7cc(-c8cc(F)ccc8O)nnc7NC[C@H]6C5)CC4)cc3C2=O)C(=O)N1` (stereo partly drawn) [Example 242, 2-(2,6-dioxopiperidin-3-yl)-5-((2-(4-((S)-2-(5-fluoro-2-hydroxyphenyl)-5,6,6a,7,9,10-hexahydro-8H-pyrazino[1′,2′:4,5]pyrazino[2,3-c]pyridazin-8-yl)piperidin-1-yl)ethyl)amino)isoindoline-1,3-dione] are less than 10 nM, more than 85%, less than 10 nM and more than 85%.
In the same order, the values of `O=C1CCC(N2C(=O)c3ccc(C4CCN(C5CCN(CCN6CCN7c8cc(-c9ccccc9O)nnc8NC[C@H]7C6)C5)CC4)cc3C2=O)C(=O)N1` (stereo partly drawn) [Example 243, 2-(2,6-dioxopiperidin-3-yl)-5-(1-(1-(2-((S)-2-(2-hydroxyphenyl)-5,6,6a,7,9,10-hexahydro-8H-pyrazino[1′,2′:4,5]pyrazino[2,3-c]pyridazin-8-yl)ethyl)pyrrolidin-3-yl)piperidin-4-yl)isoindoline-1,3-dione] are less than 10 nM, more than 85%, less than 10 nM and more than 85%.
On the same counts, the results for `O=C1CCC(N2C(=O)c3ccc(Nc4cccc(N5CCC(N6CCN7c8cc(-c9ccccc9O)nnc8NC[C@H]7C6)CC5)c4)cc3C2=O)C(=O)N1` (stereo partly drawn) [Example 244, 2-(2,6-dioxopiperidin-3-yl)-5-((3-(4-((S)-2-(2-hydroxyphenyl)-5,6,6a,7,9,10-hexahydro-8H-pyrazino[1′,2′:4,5]pyrazino[2,3-c]pyridazin-8-yl)piperidin-1-yl)phenyl)amino)isoindoline-1,3-dione] are less than 10 nM, 75 to 85%, 10 to 100 nM and 75 to 85%.
With `O=C1CCC(N2C(=O)c3ccc(Nc4cnn(CCN5CCC(N6CCN7c8cc(-c9ccccc9O)nnc8NC[C@H]7C6)CC5)c4)cc3C2=O)C(=O)N1` (stereo partly drawn) [Example 245, 2-(2,6-dioxopiperidin-3-yl)-5-((1-(2-(4-((S)-2-(2-hydroxyphenyl)-5,6,6a,7,9,10-hexahydro-8H-pyrazino[1′,2′:4,5]pyrazino[2,3-c]pyridazin-8-yl)piperidin-1-yl)ethyl)-1H-pyrazol-4-yl)amino)isoindoline-1,3-dione], on SMARCA2-HiBiT, the DC50 is less than 10 nM and the Dmax was 50 to 75%. Further, at SMARCA4-HiBiT, the DC50 is 10 to 100 nM and the Dmax is 50 to 75%.
Take `CN(CCN1CCC(CN2CCN3c4cc(-c5ccccc5O)nnc4NC[C@H]3C2)CC1)c1ccc2c(c1)C(=O)N(C1CCC(=O)NC1=O)C2=O` (stereo partly drawn) [Example 246, 2-(2,6-dioxopiperidin-3-yl)-5-((2-(4-(((S)-2-(2-hydroxyphenyl)-5,6,6a,7,9,10-hexahydro-8H-pyrazino[1′,2′:4,5]pyrazino[2,3-c]pyridazin-8-yl)methyl)piperidin-1-yl)ethyl)(methyl)amino)isoindoline-1,3-dione]: on SMARCA2-HiBiT, the DC50 was less than 10 nM and the Dmax is 75 to 85%. At SMARCA4-HiBiT, the DC50 was less than 10 nM and the Dmax lay within 50 to 75%.
`O=C1CCC(N2C(=O)c3ccc(N4CC(CN5CCC(CN6CCN7c8cc(-c9ccccc9O)nnc8NC[C@H]7C6)CC5)C4)cc3C2=O)C(=O)N1` (stereo partly drawn) [Example 247, 2-(2,6-dioxopiperidin-3-yl)-5-(3-((4-(((S)-2-(2-hydroxyphenyl)-5,6,6a,7,9,10-hexahydro-8H-pyrazino[1′,2′:4,5]pyrazino[2,3-c]pyridazin-8-yl)methyl)piperidin-1-yl)methyl)azetidin-1-yl)isoindoline-1,3-dione]: on SMARCA2-HiBiT, the DC50 was less than 10 nM and the Dmax is more than 85%. Further, on SMARCA4-HiBiT, the DC50 was less than 10 nM and the Dmax is more than 85%.
Take `CC(C1CCN(c2ccc3c(c2)C(=O)N(C2CCC(=O)NC2=O)C3=O)CC1)N1CCC(CCCN2CCN3c4cc(-c5ccccc5O)nnc4NC[C@H]3C2)CC1` (stereo partly drawn) [Example 248, 2-(2,6-dioxopiperidin-3-yl)-5-(4-(1-(4-(3-((S)-2-(2-hydroxyphenyl)-5,6,6a,7,9,10-hexahydro-8H-pyrazino[1′,2′:4,5]pyrazino[2,3-c]pyridazin-8-yl)propyl)piperidin-1-yl)ethyl)piperidin-1-yl)isoindoline-1,3-dione]: at SMARCA2-HiBiT, the DC50 is less than 10 nM and the maximal degradation (Dmax) is more than 85%. Moreover, at SMARCA4-HiBiT, the DC50 was less than 10 nM and the Dmax is more than 85%.
Consider `CC(CN1CCN2c3cc(-c4ccccc4O)nnc3NC[C@H]2C1)C1CCN(CC2CCN(c3ccc4c(c3)C(=O)N(C3CCC(=O)NC3=O)C4=O)CC2)CC1` (stereo partly drawn) [Example 249, 2-(2,6-dioxopiperidin-3-yl)-5-(4-((4-(1-((S)-2-(2-hydroxyphenyl)-5,6,6a,7,9,10-hexahydro-8H-pyrazino[1′,2′:4,5]pyrazino[2,3-c]pyridazin-8-yl)propan-2-yl)piperidin-1-yl)methyl)piperidin-1-yl)isoindoline-1,3-dione], for which, at SMARCA2-HiBiT, the DC50 was less than 10 nM and the greatest degradation seen (Dmax) was more than 85%. Moreover, on SMARCA4-HiBiT, the DC50 is less than 10 nM and the Dmax is more than 85%.
Consider `CC1(CN2CCN3c4cc(-c5ccccc5O)nnc4NC[C@H]3C2)CCN(CC2CCN(c3ccc4c(c3)CN(C3CCC(=O)NC3=O)C4=O)CC2)CC1` (stereo partly drawn) [Example 250, 3-(5-(4-((4-(((S)-2-(2-hydroxyphenyl)-5,6,6a,7,9,10-hexahydro-8H-pyrazino[1′,2′:4,5]pyrazino[2,3-c]pyridazin-8-yl)methyl)-4-methylpiperidin-1-yl)methyl)piperidin-1-yl)-1-oxoisoindolin-2-yl)piperidine-2,6-dione], for which the DC50 at SMARCA2-HiBiT and at SMARCA4-HiBiT was less than 10 nM in each case. Besides, the Dmax at SMARCA2-HiBiT and on SMARCA4-HiBiT was more than 85% throughout.
Take `COC1(CN2CCN3c4cc(-c5ccccc5O)nnc4NC[C@H]3C2)CCN(CC2CCN(c3ccc4c(c3)CN(C3CCC(=O)NC3=O)C4=O)CC2)CC1` (stereo partly drawn) [Example 251, 3-(5-(4-((4-(((S)-2-(2-hydroxyphenyl)-5,6,6a,7,9,10-hexahydro-8H-pyrazino[1′,2′:4,5]pyrazino[2,3-c]pyridazin-8-yl)methyl)-4-methoxypiperidin-1-yl)methyl)piperidin-1-yl)-1-oxoisoindolin-2-yl)piperidine-2,6-dione]: the DC50 at SMARCA2-HiBiT and on SMARCA4-HiBiT was less than 10 nM in each case. The Dmax at SMARCA2-HiBiT and on SMARCA4-HiBiT was more than 85% each time.
As to `COC1(CN2C[C@@H]3[C@@H](CN4CCN5c6cc(-c7ccccc7O)nnc6NC[C@H]5C4)[C@@H]3C2)CCN(c2ccc3c(c2)C(=O)N(C2CCC(=O)NC2=O)C3)CC1` (stereo partly drawn) [Example 252, 3-(6-(4-(((1R,5S,6s)-6-(((S)-2-(2-hydroxyphenyl)-5,6,6a,7,9,10-hexahydro-8H-pyrazino[1′,2′:4,5]pyrazino[2,3-c]pyridazin-8-yl)methyl)-3-azabicyclo[3.1.0]hexan-3-yl)methyl)-4-methoxypiperidin-1-yl)-1-oxoisoindolin-2-yl)piperidine-2,6-dione], at SMARCA2-HiBiT, the half-maximal degradation concentration (DC50) was less than 10 nM and the Dmax is more than 85%. In addition, at SMARCA4-HiBiT, the DC50 is less than 10 nM and the Dmax is more than 85%.
As to `O=C1CCC(N2C(=O)c3ccc(N4CCC(CN5CCC(NC6CCN7c8cc(-c9ccccc9O)nnc8NCC7C6)CC5)CC4)cc3C2=O)C(=O)N1` (stereo not drawn) [Example 253, 2-(2,6-dioxopiperidin-3-yl)-5-(4-((4-((2-(2-hydroxyphenyl)-6,6a,7,8,9,10-hexahydro-5H-pyrido[1′,2′:4,5]pyrazino[2,3-c]pyridazin-8-yl)amino)piperidin-1-yl)methyl)piperidin-1-yl) isoindoline-1,3-dione], at SMARCA2-HiBiT, the DC50 is less than 10 nM and the Dmax was in the range of 50 to 75%. Moreover, on SMARCA4-HiBiT, the DC50 lay in the range of 10 to 100 nM and the Dmax lay in the range of 50 to 75%.
Regarding `CN(CC1CCN(CC2CCN(c3ccc4c(c3)C(=O)N(C3CCC(=O)NC3=O)C4=O)CC2)CC1)C1CCN2c3cc(-c4ccccc4O)nnc3NCC2C1` (stereo not drawn) [Example 254, 2-(2,6-dioxopiperidin-3-yl)-5-(4-((4-(((2-(2-hydroxy-phenyl)-6,6a,7,8,9,10-hexahydro-5H-pyrido[1′,2′:4,5]pyrazino[2,3-c]pyridazin-8-yl)(methyl)amino)methyl)piperidin-1-yl)methyl)piperidin-1-yl)isoindoline-1,3-dione], at SMARCA2-HiBiT, the DC50 was less than 10 nM and the Dmax was 50 to 75%. Moreover, on SMARCA4-HiBiT, the DC50 was in the range of 10 to 100 nM and the Dmax is 75 to 85%.
`O=C1CCC(N2Cc3cc(OCCN4CCCC(CN5CCN6c7cc(-c8ccccc8O)nnc7NC[C@H]6C5)C4)ccc3C2=O)C(=O)N1` (stereo partly drawn) [Example 255, 3-(5-(2-(3-(((S)-2-(2-hydroxyphenyl)-5,6,6a,7,9,10-hexahydro-8H-pyrazino[1′,2′:4,5]pyrazino[2,3-c]pyridazin-8-yl)methyl)piperidin-1-yl)ethoxy)-1-oxoisoindolin-2-yl)piperidine-2,6-dione]: at SMARCA2-HiBiT, the DC50 fell in the range of 10 to 100 nM and the maximal degradation (Dmax) lay in the range of 75 to 85%. At SMARCA4-HiBiT, the DC50 was 100 to 1000 nM and the Dmax is not above 50%.
